Experiment [1] concerns the target T1, BTK kinase (Homo sapiens, UniProt Q06187).
T1 construct: purchased Invitrogen PV3587
In words: HTRF kinase activity inhibition assay, BTK. Type of experiment: biochemical. Particulars: HTRF TK kit. From the text: (§1) In this assay, the HTRF TK Kit (Catalog No. 62TKOPEC) provided by Cisbio was used to detect the inhibitory activity of compounds on BTK kinase and BTK C481S kinase and the selectivity of compounds relative to EGFR, ITK and TEC kinases.
(§2) Reagents and consumables: BTK kinase (Invitrogen, Catalog No. PV3587), BTK C481S (Carna, Product No. 08-547), ITK (Carna, Product No. 08-181), EGFR (Carna, Product No. 08-115), TEC (Carna, Product No. 08-182), HTRF-TK kit (Cisbio, Product No. 62TKOPEC), MgCl2 (Sigma, Product No. M1028), MnCl2 (Sigma, Product No. M1787), DTT (Sigma, Product No. D0632), ATP (Sigma, Product No. A7699-1 g), DMSO (Sigma, Product No. D2650), 384-well plate (PE, Product No. 6008280).
(§3) The entire operation steps were carried out on ice, and the total reaction volume was 10 μL. The compound (4 μL), substrate and ATP (4 μL), kinase (2 μL) were added in sequence to a 384-well plate, and shaked for 30 seconds. After an appropriate time at room temperature, the detection reagent was added. After 1 hour at room temperature, the plate was detected with a microplate reader. The specific steps were as follows: • a) 1× kinase buffer solution required for kinase detection was calculated according to the amount of the detection compound, and prepared as needed; • b) compounds with 2.5×working concentration were prepared, the 100 times gradient concentration solution of compounds was diluted by 4 μL to the desired concentration, mixed well, and added to each well at 4 μL per well; • c) 5×working concentration of substrate and ATP were prepared, mixed in a ratio of 1:1 before adding to a 384-well plate, and added to each well at 4 μL per well; • d) 5×working concentration of kinase was prepared, and 2 μL was added to each well; • e) the plate was shaked on a microplate oscillator for 30 seconds, sealed with a sealing membrane, and reacted at room temperature for an appropriate time; • f) 4×working concentrations of streptavidin XL-665 and TK antibody-cryptate compound were prepared, mixed in a ratio of 1:1 before adding to a 384-well plate, and added to each well at 10 μL per well; • g) the plate was read after reacting at room temperature for 1 hour; • h) the wells with only substrate, ATP and 1% DMSO added but no kinase were blank control wells, and the wells with only substrate, ATP, 1% DMSO and kinase were positive control wells.
(§4) Readings: The values of 620 nm (cryptate) and 665 nm (XL665) were read with a BioTek Synerg Neo2 microplate reader, the ratio of 665/620 per well was calculated, and the data were exported. Data analysis: IC50 was calculated using GraphPad Prism 7.0 software. The following nonlinear fitting formula was used to obtain the IC50 (half inhibitory concentration) of compounds:
(§5) [formula] • X: Compound concentration log value • Y: Inhibition rate (% inhibition)
(§6) The kinase inhibition rate (% inhibition rate) was calculated as: […]
In general terms: Time-resolved FRET reads energy transfer from a long-lived donor to a nearby acceptor.

Experiment [2] concerns the target T2, BTK C481S kinase (Homo sapiens, UniProt Q06187, C481S).
T2 construct: purchased Carna 08-547
Nature of the experiment: HTRF kinase activity inhibition assay, BTK C481S. The format is biochemical. The settings on record: HTRF TK kit.
From the text: as §1, §2, §3, §4, §5, §6

Experiment [3] concerns the target T3, phosphorylated BTK Y223 in NIH/3T3 BTK C481S cells (Homo sapiens, UniProt Q06187, C481S).
T3 construct: expressed in transfected cells; host or cells: NIH/3T3 (mouse fibroblasts) engineered to express BTK C481S
Nature of the experiment: Phosphor-BTK(Y223) assay, NIH/3T3 BTK C481S cells. Type of experiment: cell-based. Particulars: phosphorylated BTK Y223, NIH/3T3 BTK C481S cells; read-out: NIH/3T3 BTK-C481S pBTK IC50. As for the experimental part:
The purpose of this assay is to simply, quickly and directly detect the endogenous level of BTK in cells. The specific assay steps are as follows: Day 1: NIH/3T3 BTK WT cells (7.5 k/well) and NIH/3T3 BTK C481S cells (10 k/well) were plated in 96-well plates, respectively, and cultured overnight at 37° C. and 5% CO2.
• 1. A 3-fold final concentration gradient dilution of the compound was prepared, and 50 μL was added to 100 μL of cell culture; 0.5% DMSO was used as a positive control for cell growth. • 2. The plate was incubated at 37° C., 5% CO2 for 0.5 h. • 3. Na3VO4 with a final concentration of 1 mM was added, and incubated at 37° C. and 5% CO2 for 2 hours. • 4. During the incubation, the following reagents were prepared: 1× added lysis buffer: 3 vol ddH2O+1 vol 4× lysis buffer+100× blocking reagent. p-BTK (Y223) cryptate-antibody and p-BTK (Y223) d2-antibody working solutions: 1 volume of each cryopreserved antibody (stored at −20° C.) was added to 19 times volumes of assay buffer (stored at 4° C.). • 5. After the incubation, the medium was removed and 50 μL of 1× added lysis buffer was added; The mixture was centrifuged at 500 rpm for 30 min at room temperature. • 6. The lysate was mixed well and 16 μL was transferred to a 384-well plate; 1× added lysis buffer was used as a blank control. • 7. 4 μL of pre-mixed working solutions of the two antibodies (cryptate Ab:d2 Ab=1:1) were added and the plate was sealed. • 8. The plate was incubated overnight at room temperature.
Biotek cytation3.0 microplate reader was used to read the plate at 665 nm and 620 nm, and the ratio of 665/620 nm per well was calculated.
IC50 was calculated using GraphPad Prism 7.0 software.
The following nonlinear fitting formula was used to obtain the phosphorylated BTK Y223 IC50 (half phosphorylation inhibitory concentration) of the compounds:
as §5
The formula for calculating cell phosphorylation inhibition rate (% inhibition rate) was: […]

Experiment [4] addresses T4, phosphorylated BTK Y223 in NIH/3T3 BTK WT cells (Homo sapiens, UniProt Q06187).
T4 construct: expressed in transfected cells; host or cells: NIH/3T3 (mouse fibroblasts) engineered to express BTK WT
In words: Phosphor-BTK(Y223) assay, NIH/3T3 BTK WT cells. Type of experiment: cell-based. The settings on record: phosphorylated BTK Y223, NIH/3T3 BTK WT cells; read-out: NIH/3T3 BTK-WT pBTK IC50. The gist of the method: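 NIH/3T3 cells expressing BTK WT (7.5k/well) or C481S (10k/well) were treated with compound for 0.5 h at 37 °C, then 1 mM Na3VO4 was added for 2 h. Lysates were probed overnight at room temperature with HTRF p-BTK(Y223) cryptate/d2 antibodies (665/620 nm ratio). IC50 came from nonlinear fit of % inhibition against log concentration.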

A value given as a limit tells only on which side of the number the result lay.

T1 sequence (Q06187 whole entry): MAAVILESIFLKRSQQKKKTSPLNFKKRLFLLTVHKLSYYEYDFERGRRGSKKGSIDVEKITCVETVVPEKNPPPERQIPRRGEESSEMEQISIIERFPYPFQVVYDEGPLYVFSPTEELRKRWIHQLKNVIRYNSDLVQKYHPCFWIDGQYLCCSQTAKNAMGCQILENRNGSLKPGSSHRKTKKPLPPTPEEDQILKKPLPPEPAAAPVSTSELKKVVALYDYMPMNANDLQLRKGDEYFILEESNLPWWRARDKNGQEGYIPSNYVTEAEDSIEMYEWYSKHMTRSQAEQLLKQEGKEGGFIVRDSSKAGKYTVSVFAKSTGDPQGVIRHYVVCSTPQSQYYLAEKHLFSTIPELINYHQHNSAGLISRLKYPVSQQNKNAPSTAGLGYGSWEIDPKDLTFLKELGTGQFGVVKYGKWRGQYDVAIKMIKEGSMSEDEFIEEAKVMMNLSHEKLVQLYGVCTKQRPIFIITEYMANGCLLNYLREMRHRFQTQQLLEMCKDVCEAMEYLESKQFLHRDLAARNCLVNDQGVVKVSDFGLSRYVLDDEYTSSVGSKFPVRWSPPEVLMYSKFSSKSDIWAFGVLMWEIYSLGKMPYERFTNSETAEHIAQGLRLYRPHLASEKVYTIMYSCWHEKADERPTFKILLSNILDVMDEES
T4 sequence (Q06187 whole entry): as above
T2 sequence (Q06187 whole entry C481S): as the sequence (Q06187 whole entry) above, with C481S counted along it
T3 sequence (Q06187 whole entry C481S): as the sequence (Q06187 whole entry) above, with C481S counted along it

With `COc1ccc(F)cc1C(=O)NCc1ccc(-c2nn(C3CCCC(O)C3)c3ncnc(N)c23)cc1` (single isomer, unassigned) [Example 5], the IC50 in experiment [1] is 10 to 50 nM; in experiment [2] it was at most 10 nM; in experiment [3], at most 25 nM; in experiment [4] it was at most 25 nM.
As for `COc1ccc(F)cc1C(=O)NCc1ccc(-c2nn(C3CCCC(O)C3)c3ncnc(N)c23)cc1` (single isomer, unassigned) [Example 6], the IC50 was at most 10 nM in experiment [1], at most 10 nM in experiment [2], at most 25 nM in experiment [3] and at most 25 nM in experiment [4].
For `COc1ccc(F)cc1C(=O)NCc1ccc(-c2nn(C3CCCC(O)C3)c3ncnc(N)c23)cc1` (single isomer, unassigned) [Example 7], the IC50 in experiment [2] was at most 10 nM; in experiment [3], 25 to 50 nM; in experiment [4], at most 25 nM.
As to `COc1ccc(F)cc1C(=O)NCc1ccc(-c2nn(C3CCCC(O)C3)c3ncnc(N)c23)cc1` (single isomer, unassigned) [Example 8], the values for the IC50 in experiment [2], in experiment [3] and in experiment [4] were 10 to 50 nM, 50 to 100 nM and at most 25 nM, respectively.
With `COc1ccc(F)cc1C(=O)NCc1ccc(-c2nn(C3CCC(CO)OC3)c3ncnc(N)c23)cc1` (single isomer, unassigned) [Example 18, N-(4-(4-amino-1-(6-(hydroxymethyl)tetrahydro-2H-pyran-3-yl)-1H-pyrazolo[3,4-d]pyrimidin-3-yl)benzyl)-5-fluoro-2-methoxybenzamide], the IC50 in experiment [1] was at most 10 nM; in experiment [2], at most 10 nM; in experiment [3] it was at most 25 nM; in experiment [4], at most 25 nM.
Take `COc1ccc(F)cc1C(=O)NCc1ccc(-c2nc(C3CCCC(O)C3)n3ccnc(N)c23)cc1` (single isomer, unassigned) [Example 22, N-(4-(8-amino-3-(3-hydroxycyclohexanyl)imidazo[1,5-a]pyrazin-1-yl)benzyl)-5-fluoro-2-methoxybenzamide]: the IC50 is at most 10 nM in experiment [1], at most 10 nM in experiment [2], at most 25 nM in experiment [3] and at most 25 nM in experiment [4].
Regarding `COc1ccc(F)cc1C(=O)NCc1ccc(-c2nn(C3CCC(O)C3)c3ncnc(N)c23)cc1` (single isomer, unassigned) [Example 31, N-(4-(4-amino-1-(3-hydroxycyclopentanyl)-1H-pyrazolo[3,4-d]pyrimidin-3-yl)benzyl)-5-fluoro-2-methoxybenzamide], the IC50 in experiment [1] is at most 10 nM; in experiment [2], at most 10 nM; in experiment [3], at most 25 nM; in experiment [4], at most 25 nM.
On to `COc1ccc(F)cc1C(=O)NCc1ccc(-c2cc(C3CCC(CO)OC3)n3ncnc(N)c23)cc1` (single isomer, unassigned) [Example 59, N-(4-(4-amino-7-(6-(hydroxymethyl)tetrahydro-2H-pyran-3-yl)pyrrolo[2,1-f][1,2,4]triazin-5-yl)benzyl)-5-fluoro-2-methoxybenzamide], for which the IC50 in experiment [1] lay within 10 to 50 nM; in experiment [2] it was 10 to 50 nM; in experiment [3] it was 50 to 100 nM; in experiment [4], 25 to 50 nM.
Regarding `COc1ccc(F)cc1C(=O)NCc1ccc(-c2cc(C3CCC(CO)OC3)n3ncnc(N)c23)cc1` (single isomer, unassigned) [Example 60, N-(4-(4-amino-7-(6-(hydroxymethyl)tetrahydro-2H-pyran-3-yl)pyrrolo[2,1-f][1,2,4]triazin-5-yl)benzyl)-5-fluoro-2-methoxybenzamide], the IC50 was at most 10 nM in experiment [1], at most 10 nM in experiment [2], at most 25 nM in experiment [3] and at most 25 nM in experiment [4].
Take `COc1ccc(F)cc1C(=O)NCc1ccc(-c2nn(C3CCCC(O)C3)c3ncnc(N)c23)cc1` (stereo not drawn) [Example 4]: the IC50 in experiment [1] was at most 10 nM; in experiment [2], at most 10 nM; in experiment [3] it was 25 to 50 nM; in experiment [4], at most 25 nM.
For the compound `COc1ccc(F)cc1C(=O)NCc1ccc(-c2nc(C3CCCC(O)C3)n3ccnc(N)c23)cc1` (stereo not drawn) [Example 20, N-(4-(8-amino-3-(3-hydroxycyclohexanyl)imidazo[1,5-a]pyrazin-1-yl)benzyl)-5-fluoro-2-methoxybenzamide], the IC50 in experiment [1] is at most 10 nM; in experiment [2], 10 to 50 nM; in experiment [3], at most 25 nM; in experiment [4] it was at most 25 nM.
`COc1ccc(F)cc1C(=O)NCc1ccc(-c2nn(C3CCC(O)CC3)c3ncnc(N)c23)cc1` [Example 29, N-(4-(4-amino-1-((1R,4R)-4-hydroxycyclohexyl)-1H-pyrazolo[3,4-d]pyrimidin-3-yl)benzyl)-5-fluoro-2-methoxybenzamide]: the IC50 in experiment [1] is at most 10 nM; in experiment [2] it was at most 10 nM; in experiment [3], at most 25 nM; in experiment [4], at most 25 nM.
`COc1ccc(F)cc1C(=O)NCc1ccc(-c2nn([C@H]3CC[C@@H](O)CC3)c3ncnc(N)c23)cc1` [Example 30, N-(4-(4-amino-1-((1S,4S)-4-hydroxycyclohexyl)-1H-pyrazolo[3,4-d]pyrimidin-3-yl)benzyl)-5-fluoro-2-methoxybenzamide]: the IC50 was at most 10 nM in experiment [1], at most 10 nM in experiment [2], at most 25 nM in experiment [3] and at most 25 nM in experiment [4].
As to `COc1ccc(F)cc1C(=O)NCc1ccc(-c2nn([C@H]3CC[C@@H](CO)CC3)c3ncnc(N)c23)cc1` [Example 55, cis-N-(4-(4-amino-1-((1S,4S)-4-(hydroxymethyl)cyclohexyl)-1H-pyrazolo[3,4-d]pyrimidin-3-yl)benzyl)-5-fluoro-2-methoxybenzamide], the IC50 in experiment [1] was at most 10 nM; in experiment [2], at most 10 nM; in experiment [3] it was at most 25 nM; in experiment [4], at most 25 nM.

The record behind these values is patent publication US20250179027A1, “CYCLOALKYL OR HETEROCYCLYL SUBSTITUTED HETEROARYL COMPOUND, AND COMPOSITION AND USE THEREOF” (Shenzhen TargetRx, Inc., priority 2022, published 2025).
